Values of other authors, collected in US20170209372A1, “A Method of Preparing Amorphous Solid Dispersion in Submicron Range by Co-Precipitation” (HOVIONE INTERNATIONAL LTD, priority 2014, published 2017).

Row | Log P | Structure (SMILES)
1 | ~5.77 | C(=C\c1ccccc1)/CN1CCN(C(c2ccccc2)c2ccccc2)CC1 [Cinnarizine]
2 | 4.4 | CCC(C)n1ncn(-c2ccc(N3CCN(c4ccc(OCC5COC(Cn6cncn6)(c6ccc(Cl)cc6Cl)O5)cc4)CC3)cc2)c1=O (stereo not drawn) [Itraconazole]
3 | ~2.6 | NC(=O)N1c2ccccc2C=Cc2ccccc21 [Carbamazepine]
